This note sets out measurements from patent US10711002B2, “Purine compounds and method for the treatment of cancer” (THE ROYAL INSTITUTION FOR THE ADVANCEMENT OF …, priority 2016, dated 2020).

One data set has as its system BT-20 cells. In words: Tumorsphere formation. Format: cell-based. Particulars: BT-20, 1 μM for 72H, reseeded in suspension. The procedure:
(§1) Cancer cell lines: MDA-MB-231, BT-20, Panc-1, OVCAR-3, 4T1 and RENCA were obtained from ATCC. Epithelial breast adenocarcinoma cell line PMC42-LA, were kindly provided by Dr. Ackland. Mia-Paca cells were kindly provided by Dr. George Zogopoulos. All cancer cell lines were cultured in RPMI1640× with 10% fetal bovine serum with 1% penicillin/streptomycin, and maintained at 37° C. in 5% atmosphere of CO2. In the case of growth factor stimulation, cells were serum starved for no longer than 12H, and then stimulated with 20 ng/ml EGF for 40 minutes.
(§2) After treatment with 1 μM Compound 1 for 72H, MDA-MB-231 and BT-20 cells were digested with 0.25% trypsin and reseeded at 2.5×10^4 cells/ml in 60 mm Ultralow Adherence plates (Corning) in DMEM/F12 supplemented with 5 ug/ml human insulin, 20 ng/ml human epidermal growth factor, 0.5 ug/ml hydrocortisone and 2% B27 (Invitrogen). Tumorspheres were then visualized (FIG. 1A) and then quantified (FIG. 1B). An important feature of cancer stem-like cells is their enhanced tumorsphere forming potential when grown in suspension. The tumorsphere forming capacity of Compound 1-treated MDA-MB-231 and BT-20 were analyzed in FIG. 1A. Consistent with previous characterization of these cells, in the absence of Compound 1, both MDA-MB-231 and BT-20 are capable of propagating as small individual tumorspheres that survive passaging.

A further data set relates to MDA-MB-231 cells. Description: Tumorsphere formation. Format: cell-based. Particulars: MDA-MB-231, 1 μM for 72H, reseeded in suspension. The procedure:
as §1, §2

The test system of another data set is PMC42-LA cells. In words: Organoid differentiation on matrigel. It is filed as cell-based. The procedure:
as §1
In order to confirm that the reduction of CSC markers by Compound 1 correlates with loss of stem-cell properties, the effect of Compound 1 was investigated on the differentiation capability of a well-established PMC42-LA breast cell line. PMC42-LA cells treated with the appropriate concentrations of Compound 1 were also plated on Compound 1 containing matrigel and allowed to form organoids. Since the defining characteristic of stem cells is pluripotency—the capacity of a cell to differentiate into varying progenies, then Compound 1 may inhibit the differentiation process in those PMC42-LA cells. In the absence of drug treatment, PMC42-LA cells undergo differentiation into secretory organoids when cultured on matrigel.

A further data set concerns cell mobility. Description: Live cell locomotion assay. Format: cell-based. The following applies: moderate doses; 10 ng/mL EGF stimulation. As to the method:
Cells were seeded at very low density on multi-well chambered coverglass (LabTek, Rochester, N.Y., USA). After starving, cells were stimulated with 10 ng/mL EGF and plated on a heated humidified stage supplied with 5% CO2. Phase contrast time-lapse images were captured every five minutes for three hours by optimized Nipkow spinning disk confocal microscope (WaveFx spinning disk, Quorum Technologies Inc, Guelph, ON, Canada). Cell motility was measured by tracing the cell periphery manually using Volocity software (Perkin Elmer, Waltham, Mass., USA).
To further confirm Compound 1's anti-metastatic potential, we conducted a live cell locomotion assay to quantify cell movement speed.

The subject of another data set is BT20 cells. In words: Clonogenic assay. Format: cell-based. Particulars: BT20, 6 days of incubation. The procedure: as §1
(§3) Clonogenic assays were also performed using standard techniques as previously described. Briefly, cells were harvested from exponential-phase cultures, counted and plated at densities of 200 cells per well of a 12-well plate. Twenty-four hours after plating, the compounds were delivered once at the mentioned concentration. Negative control was carried out by treating the cells with DMSO. After 6 days of incubation in the presence of the compounds, the cells were stained with 0.5% crystal violet in absolute ethanol, and colonies were counted using the machine GelCount™ Tumor Colony Counter from Oxford Optronix Ltd. Each experiment was done in triplicates.

The next data set has as its system OVCAR-3 cells. In words: Clonogenic assay. The following applies: OVCAR-3, 6 days of incubation. Format: cell-based. The procedure: as §1, §3
A further data set concerns Panc-1 cells. In words: Clonogenic assay. It is filed as cell-based. Particulars: Panc-1, 6 days of incubation. The procedure: as §1, §3
The subject of data set [1] is 4T1/M (triple-negative breast cancer). Description: In vivo distant metastasis and primary tumor growth, orthotopic transplant. The following applies: 4T1/M in Balb/c mice, PO. The text has this: (§4) In vivo studies were approved by McGill Animal Care Committee. Cells growing in exponential phase of growth (1×10^6 cells/mouse) were transplanted into the mammary fat pad of female SCID (MDA231/M) or Balb/c (4T1) mice. Mia-PaCa cells and RENCA cells were implanted subcutaneously in SCID or Balb/c mice respectively. When primary tumors became palpable mice were randomized and blindly assigned treatment groups. Treatment was given PO for 4 cycles (3 times a week: day 1, day 3, day 5) (n=8-10 mice per condition). Control mice received the vehicle alone (1% DMSO in physiologic solution). […] Tumor size was measured using a caliper. At the study termination (60-90 days) primary tumors were excised and weighted. The lungs were fixed in 10% Bouin's fixative and lung surface metastases were counted using a stereomicroscope.

Data set [2] has as its system MDA-231/M (human triple-negative breast cancer). The description is as above. Particulars: MDA-231/M in SCID mice, PO.
Source text: as §4

Data set [3] concerns Mia-PaCa (human pancreatic carcinoma). Description: In vivo primary tumor growth, subcutaneous implant. Also on record: species or system SCID mice.
Source text: as §4

The nature of the next data set: Pilot toxicity study. Format: in vivo, mice. Particulars: doses even superior to 30 mg/kg, PO, 3 times a week, 4 cycles.
Source text: as §4

The subject of data set [4] is breast cancer metastasis to the lung. In words: In vivo invasive breast cancer models, metastasis to the lung. The following applies: 30 mg/kg and below given bi-weekly for 3 weeks.
Source text: These kinases are directly involved in pathways controlling cell differentiation programs, metastasis signaling, as well as EMT and CSC programming and their overexpression was reported to predict decreased metastasis-free survival.
as §4, with “Treatment was given PO for 4 cycles (3 times a week: day 1, day 3, day 5) (n=8-10 mice per condition).” left out

Take `O=c1c2ccccc2[se]n1-c1nc(NC2CCCCC2)c2nc[nH]c2n1` [Compound 1]: the viable tumorspheres entry with BT-20 cells and in the data set on MDA-MB-231 cells was “dramatic reduction in viable tumorspheres” in each case. Further, the “differentiation and expansion of colonies into larger organoid structures” value in the data set with PMC42-LA cells is “visibly prevented the differentiation and expansion of these colonies into larger organoid structures”. In addition, the “number of overall colonies” value in the data set with PMC42-LA cells was “did not reduce the number of overall colonies”. For the same molecule, in the data set on cell mobility, the “limitation of the rate of cell mobility” value is reported as 2-3 fold.
Consider `O=c1c2ccccc2[se]n1-c1nc(N[C@H]2CC[Se]C2)c2nc[nH]c2n1` [Compound 4], for which the colony forming ability entry with BT20 cells, in the data set with OVCAR-3 cells and in the data set on Panc-1 cells was “Significant reduction” throughout. In addition, the “Primary tumor weight” value in data set [1] (at study termination) is 0.5 ± 0.10 g; in [2] (at study termination) it was 0.2 ± 0.08 g; in [3] (Mia-PaCa subcutaneous in SCID mice, PO, at study termination) it was 0.6 ± 0.14 g. In addition, the “Inhibition of distant metastasis (% control)” value in data set [1] (lung surface metastases) was 75-82%; in [2] (lung surface metastases), 45-61%. In addition, the “pancreatic cancer cell (Mia-PaCa) growth in vivo” value in data set [3] (mouse, in vivo) is “able to inhibit”. The body weight loss entry in “Pilot toxicity study” is given as “no body weight loss”. Moreover, the toxicity entry in the data set “Pilot toxicity study” is recorded as “no apparent toxicity”. Also, in data set [4], the “inhibition of breast cancer metastasis to the lung” value was “more than 50%”.
